One test concerns rat hearts. The settings on record: isolated rat hearts, cited from earlier work.
Test [1] has as its target T1, Na^+ /H^+ exchanger of rabbit erythrocytes (Oryctolagus cuniculus, UniProt P23791).
T1 construct: exchanger of rabbit erythrocytes; endogenous in cells; host or cells: erythrocytes from ear-artery blood of White New Zealand rabbits (Ivanovas) fed 2% cholesterol for six weeks
Kind of test: Inhibition of the Na+/H+ exchanger of rabbit erythrocytes (amiloride-sensitive sodium influx, flame photometry). The test is classed as cell-based, rabbit (White New Zealand). The settings on record: pH 7.4, 37° C., hyperosmolar salt/sucrose medium. The text has this:
Inhibitors of the Na^+ /H^+ exchanger of rabbit erythrocytes:
White New Zealand rabbits (Ivanovas) were given a standard diet with 2% of cholesterol for six weeks in order to activate the Na^+ /H^+ exchange so that the Na^+ influx into the erythrocytes via Na^+ /H^+ exchange can be determined by flame photometry. The blood was taken from the ear arteries and rendered uncoagulable by 25 IU/ml of heparin potassium. A portion of each sample was used for duplication determination of the hematocrit by centrifugation. Aliquots of in each case 100 μl were used for measurement of the initial Na^+ content of the erythrocytes.
To determine the amiloride-sensitive sodium influx, 100 μl of each blood sample were each incubated at pH 7.4 and 37° C. in 5 ml of a hyperosmolar salt/sucrose medium (mmol/l: 140 NaCl, 3 KCl, 150 sucrose, 0.1 ouabain, 20 tris-hydroxymethyl-aminomethane). The erythrocytes were then washed three times with ice-cold MgCl2 /ouabain solution (mmol/l: 112 MgCl2, 0.1 ouabain) and hemolyzed in 2.0 ml of distilled water. The intracellular sodium content was determined by flame photometry.
The net Na^+ influx was calculated from the difference between the initial sodium levels and the sodium content of the erythrocytes after incubation. […]

Counter-ions that a name gives are not always drawn.

The term IC50 denotes the concentration needed to halve the response being measured.

T1 sequence (P23791 whole entry): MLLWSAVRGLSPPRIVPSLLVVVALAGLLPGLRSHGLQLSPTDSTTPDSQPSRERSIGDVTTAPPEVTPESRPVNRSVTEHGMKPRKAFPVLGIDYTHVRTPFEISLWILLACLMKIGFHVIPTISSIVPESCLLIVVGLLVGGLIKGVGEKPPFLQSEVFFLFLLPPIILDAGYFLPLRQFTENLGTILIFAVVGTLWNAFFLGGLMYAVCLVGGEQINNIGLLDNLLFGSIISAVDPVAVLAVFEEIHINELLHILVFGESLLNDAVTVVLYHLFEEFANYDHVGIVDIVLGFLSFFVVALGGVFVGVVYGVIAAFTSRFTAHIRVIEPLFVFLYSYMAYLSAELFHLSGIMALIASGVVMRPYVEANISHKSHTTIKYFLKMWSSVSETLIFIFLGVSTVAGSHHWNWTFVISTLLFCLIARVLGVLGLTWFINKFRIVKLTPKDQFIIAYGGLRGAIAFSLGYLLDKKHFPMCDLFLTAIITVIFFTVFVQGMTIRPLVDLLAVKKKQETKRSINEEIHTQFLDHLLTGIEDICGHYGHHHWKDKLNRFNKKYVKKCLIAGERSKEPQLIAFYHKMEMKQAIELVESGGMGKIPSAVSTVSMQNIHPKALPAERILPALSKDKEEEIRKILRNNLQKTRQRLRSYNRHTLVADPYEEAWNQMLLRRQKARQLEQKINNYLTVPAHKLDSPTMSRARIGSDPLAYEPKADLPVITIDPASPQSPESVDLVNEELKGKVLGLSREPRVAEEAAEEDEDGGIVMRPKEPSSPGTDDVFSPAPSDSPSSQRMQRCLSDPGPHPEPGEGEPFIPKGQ

As for `NC(N)=NC(=O)c1nc(Cl)c(N)nc1N` [amiloride], the “suppression of artificially induced ventricular fibrillation” value in the test on rat hearts (Eur. Heart J. 9 (suppl. 1): 167 (1988)) is reported as “suppressed completely”.
For `CCN(c1nc(N)c(C(=O)N=C(N)N)nc1Cl)C(C)C` [ethylisopropylanmiloride, Ethylisopropylamiloride], the “potency in ventricular fibrillation model relative to amiloride” value in the test on rat hearts (compared with amiloride) is listed as “even more potent than amiloride”.
For the compound `C/C(=C\c1ccc(OCCCN(C)C)cc1)C(=O)N=C(N)N` [Example 2, E-3-[4-(3-Dimethylaminopropoxy)phenyl)-2-methyl-propenoic acid guanidide dihydrochloride], the IC50 in test [1] is under 1 µM.
Regarding `C/C(=C\c1ccc(N(C)C)cc1)C(=O)N=C(N)N` [Example 1, E-3-(4-Dimethylaminophenyl)-2-methyl-propenoic acid guanidide hydrochloride], in test [1], the IC50 is under 1 µM.

(Values after patent US5883133A, “Substituted cinnamic acid guanidides, a process for their preparation, their use as medicaments or diagnostic agents and medicaments comprising them” (priority 1995, dated 1999).)
